From patent publication US8470856B2, “Anthranilamide compounds, process for their production and pesticides containing them” (Ishihara Sangyo Kaisha, Ltd., priority 2004, dated 2013)
Several values for one entry are separate records, joined by “and”; a condition that tells them apart may be missing. Identical values can stand only once.

Key:
Assay type in all cases: in vivo
[1] = tested on: Haemaphysalis longicornis; test: Controlling effects against Haemaphysalis longicornis, knockdown of larval ticks in treated petri dish; settings: 1 ml acetone solution 10 μg/ml on petri dish, 25° C., operation repeated twice (two values)
Method: Test on Controlling Effects Against Haemaphysalis longicornis
On an inner surface of a petri dish having diameter of 9 cm, 1 ml of an acetone solution of a sample compound (concentration: 10 μg/ml) was dropwise applied by a micropipette. On the other hand, as a control section, 1 ml of acetone was dropwise applied in the same manner. The inner surface of the petri dish was dried, and then about 100 larval ticks were put, and the petri dish was covered with a polyethylene sheet and sealed with an elastic band. Thereafter, except for the observation time, the petri dish was left to stand at a constant temperature of 25° C. under a relative humidity of 100% and under a constantly dark condition. The observation was carried out every time after putting the larval ticks in the petri dish (after 5 minutes, 10 minutes, 15 minutes, 20 minutes, 30 minutes, 45 minutes, 1 hour, 2 hours, 4 hours, 6 hours and 24 hours). The number of knockdown ticks after the contact with the insecticidal compound was recorded. The foregoing operation was repeated twice.
The knockdown rate at each observation time was corrected by the following abbott correction formula. Then, a probit-time linear line was drawn, and the median knockdown time (KT50 value) was obtained. With respect to the KT50 values of the respective sample compounds, they were 9 minutes and 8 minutes with the above-mentioned compound No. 3, and 7.5 minutes and 6 minutes with the above-mentioned compound No. 9, while they were 80 minutes and 40 minutes with the following comparative compound A and 120 minutes and 80 minutes with the following comparative compound B. Corrected knockdown rate(%)=[(non-knockdown rate in control section−non-knockdown rate in treated section)/non-knockdown rate in control section]×100

[2] = tested on: Common Cutworm (Spodoptera litura); test: Controlling effects against common cutworm, cabbage leaf dip; settings: foliar, 120 h
Description: Test on Controlling Effects Against Common Cutworm (Spodoptera litura)
A leaf segment of cabbage was dipped for about 10 seconds in an insecticidal solution prepared to bring the concentration of the compound of the present invention to 50 ppm or 3.1 ppm and dried in air. A wet filter paper was laid in a petri dish having a diameter of 9 cm, and the dried leaf segment of cabbage was placed thereon. Ten second-third instar larvae common cutworm were released therein and after putting a cover, left in a constant temperature chamber at 25° C. with lightening. Dead larvae were counted 5 days after the release, and the mortality was calculated by the following equation. Here, moribund insects were counted as dead insects. […] Mortality(%)=(number of dead insects/number of released insects)×100

[3] = tested on: Cat Flea (Ctenocephalides felis); test: Controlling effects against cat flea, dry film in glass tube; settings: 0.5 ml of 5.3 ppm acetone solution as dry film, adult fleas, 48 hours after exposure
Method: Test on Controlling Effects Against Cat Flea (Ctenocephalides felis)
0.5 ml of an acetone solution of the compound of the present invention prepared to be 5.3 ppm was dropped in a glass tube having a flat bottom (inner diameter: 2.6 cm, bottom area: 5.3 cm^2, height 12 cm). The acetone was evaporated at room temperature to have a dry film containing the compound of the present invention formed on the bottom surface. Ten adults of cat flea (not-yet-blood-sucked adults within five days after adult emergence) were put therein and exposed to the compound of the present invention. The test was carried out continuously three times.
Dead cat flea were counted 48 hours after the exposure and the mortality was obtained in the same manner as in the above Test Example 1.

## Cc1cc(Cl)cc(C(=O)NC(C)C)c1NC(=O)c1cc(C(F)(F)F)nn1-c1ncccc1Cl [comparative compound A, reference compound]
[1]
  median knockdown time (KT50 value): 80 min and 40 min

## Cc1cc(Cl)cc(C(=O)NC(C)C)c1NC(=O)c1cc(Br)nn1-c1ncccc1Cl [comparative compound B, reference compound]
[1]
  median knockdown time (KT50 value): 120 min and 80 min

## Cc1cccc(C(=O)NCC2CC2)c1NC(=O)c1cc(C(F)(F)F)nn1-c1ncccc1Cl [compound No. 1, N-[6-[[(cyclopropylmethyl)amino]carbonyl]-2-methylphenyl]-1-(3-chloro-2-pyridyl)-3-(trifluoromethyl)-1H-pyrazol-5-carboxamide]
[2]
  mortality at 3.1 ppm: ≥ 90%

## Cc1cc(Cl)cc(C(=O)NC(C)C2CC2)c1NC(=O)c1cc(C(F)(F)F)nn1-c1ncccc1Cl (stereo not drawn) [compound No. 3, N-[4-chloro-2-methyl-6-[[α-methyl-(cyclopropylmethyl)amino]carbonyl]-phenyl]-3-(trifluoromethyl)-1-(3-chloro-2-pyridyl)-1H-pyrazol-5-carboxamide]
[1]
  median knockdown time (KT50 value): 9 min and 8 min

## Cc1cc(Cl)cc(C(=O)NC(C)C2CC2)c1NC(=O)c1cc(Br)nn1-c1ncccc1Cl (stereo not drawn) [compound No. 9, N-[4-chloro-2-methyl-6-[[α-methyl-(cyclopropylmethyl)amino]carbonyl]-phenyl]-3-bromo-1-(3-chloro-2-pyridyl)-1H-pyrazol-5-carboxamide]
[1]
  median knockdown time (KT50 value): 7.5 min and 6 min

## CC(NC(=O)c1cc(Cl)cc(Br)c1NC(=O)c1cc(Br)nn1-c1ncccc1Cl)C1CC1 (stereo not drawn) [compound No. 16, N-[2-bromo-4-chloro-6-[[α-methyl-(cyclopropylmethyl)amino]carbonyl]-phenyl]-3-bromo-1-(3-chloro-2-pyridyl)-1H-pyrazol-5-carboxamide]
[3]
  mortality: at least 90%
